Results taken from patent US20250101062A1, “ANTIMICROBIAL PEPTIDES” (Board of Regents of the University of Nebraska, priority 2023, published 2025).
Where no end group is shown, it is not given here.

Experiments:
[1] = tested on: human red blood cells; experiment: Hemolytic assay; type: cell-based; conditions: human, 1 h, 400 μM
Summary of the method: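 Washed human erythrocytes at 2% in isotonic saline incubated 1 h at 37 °C with serially diluted peptides. After centrifugation, released hemoglobin read at 545 nm relative to 1% Triton X-100; HC50 is the peptide concentration giving 50% lysis.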

[2] = tested on: K. pneumoniae E406-17; type: cell-based, Klebsiella pneumoniae
Summary of the method: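 Peptides twofold serially diluted against exponential-phase resistant clinical isolates at ~10^5 CFU/mL in MHB (also diluted MHB, TSB or LB in one protocol), CLSI-based broth microdilution. Incubated overnight at 37° C., OD 600 nm read; MIC taken as lowest concentration without growth, reported as ranges.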

[3] = tested on: E. coli E423-17; experiment: Membrane permeabilization (propidium iodide); type: cell-based, Escherichia coli; conditions: Example 1, 1×MIC
[4] = tested on: E. coli E423-17; experiment: Membrane depolarization (DiBAC4(3)); type: cell-based, Escherichia coli; conditions: Example 1
[5] = tested on: trypsin; conditions: peptide:protease 40:1, 37° C., 1 hour
Description: A solution of peptide/protease (40:1 molar ratio) was made in phosphate-buffered saline (PBS; pH 7.1, Gibco, NY) and incubated at 37° C. for 1 hour. As controls, peptides without proteases were also incubated in the same manner. Then, aliquots of 10 μL were transferred to a 96-well polystyrene microplate and mixed with the exponential-phase MRSA USA300 culture as performed in the antibacterial activity assays above.

[6] = tested on: S. aureus USA300 LAC; experiment: Scanning electron microscopy; type: cell-based, Staphylococcus aureus; conditions: 2×MIC, 30 minutes
Description: The exponential-phase S. aureus USA300 LAC was treated with a 2×MIC of LL-37mini for 30 minutes. Samples were washed three times with 1×PBS and fixed with 2% paraformaldehyde and 2% glutaraldehyde in 0.1 M PBS. Next, the samples were washed with Sorensen's buffer and postfixed in 1% osmium tetroxide in water for 30 minutes. All samples were then washed in Sorensen's buffer and dehydrated through a graded ethanol series (50, 70, 90, 95, and 100% with ×3 changes). Subsequently, samples were placed in […] 100% for 10 minutes with three changes and left in HMDS in open dishes in the fume hood overnight to allow the HMDS to evaporate. The following day, the samples were mounted on 25 mm aluminum SEM stubs with carbon adhesive tabs. Silver paste was placed around the edges of the samples. Samples were sputter coated with 50 nm of gold/palladium in a Hummer VI sputter coater (Anatech Ltd., Battle Creek, MI) and examined in an FEI Quanta 200 SEM at the UNMC Electron Microscopy Core Facility.

Compound	hemolysis [1]	Activity (MIC) K. pneumoniae [2] [µM]	membrane permeabilization [3]	membrane depolarization [4]	activity after protease incubation [5]	cell morphology by SEM [6]
CCCCCCCCCC(=O)N[C@@H](Cc1c[nH]c2ccccc12)C(=O)N[C@H](CC(N)=O)C(=O)N[C@@H](CC(=O)O)C(=O)N[C@@H]1C(=O)NCC(=O)N[C@@H](CCCN)C(=O)N[C@@H](CC(=O)O)C(=O)N[C@H](C)C(=O)N[C@@H](CC(=O)O)C(=O)NCC(=O)N[C@H](CO)C(=O)N[C@@H]([C@H](C)CC(=O)O)C(=O)N[C@@H](CC(=O)c2ccccc2N)C(=O)O[C@@H]1C [Daptomycin]	did not lyse human red blood cells even at 400 μM	–	–	–	–	–
RRWWRWWR-NH2 [W543]	–	>32	30 minute delay in membrane permeabilization	some depolarization	started to lose activity	cell damages were evident
